Measurements from patent US9708359B2, “Pyrrolopyrimidine nucleosides and analogs thereof” (Chimerix, Inc., priority 2015, dated 2017).

Experiments:
HSV-2 = assay: Plaque-reduction assay for HSV-2; format: cell-based, herpes simplex virus 2; conditions: Human alphaherpesvirus 2; HSV-2, HFF cells
Experimental: Plaque-Reduction Assays for HSV-1, HSV-2, VZV and HCMV:
Monolayers of cells were prepared in six-well plates and incubated at to allow the cells to reach confluency. Media was then aspirated from the wells and of virus was added to each of three wells to yield 20-30 plaques in each well. The virus was allowed to adsorb to the cells for 1 h and the plates were rocked gently every 15 min to redistribute the media. Compounds were diluted in maintenance cell culture media consisting of MEM with Earl's salts supplemented with 2% FBS, L-glutamine, penicillin, and gentamycin. Solutions were added to duplicate wells and the plates were incubated for various times, depending on the virus used. The plaque-reduction assay with HSV-1 strain F was performed in a similar manner but with Vero cells infected one day after plating. For HSV-1 and -2, the monolayers were stained with 1% crystal violet in 20% methanol and the unbound dye removed by washing with dH2O. For assays with HCMV and VZV, the cell monolayer was stained with 1% Neutral Red solution for 4 h then the stain was aspirated and the cells were washed with PBS. For all assays, plaques were enumerated using a stereomicroscope and the concentration of compound that reduced plaque formation by 50% (EC50) was interpolated from the experimental data. […]

HHV-8 = assay: cells; format: cell-based, human herpes virus 8; conditions: Homo sapiens, BCBL1; HHV-8, BCBL-1 cells
JCV = assay: qPCR assay for JCV; format: cell-based, JC virus; conditions: JC polyomavirus, 293TT cells
Experimental: qPCR Assays for BKV and JCV:
Primary evaluation of compounds against JC virus were also performed by methods similar to those for BK virus primary assays. Secondary assays against JCV were performed in COS7 cells by methods similar to those for BK virus to identify compounds that inhibited adsorption or penetration of the virus.
Primary evaluation of compounds against JC virus were also performed by methods similar to those for BK virus primary assays but were done in 293TT cells and utilized the 1-4 strain of JCV in 293TT cells. Viral DNA was quantified using primers 5′-[…]-3′ (SEQ ID No. 11) and 5′-[…]-3′ (SEQ ID No. 12) and probe 5′-6-FAM-[…]-TAMRA-3′ (SEQ ID No. 13) together with the plasmid pMP508 to provide a standard curve for absolute quantification. Secondary assays against JCV were performed in COS7 cells by methods similar to those for BK virus to identify compounds that inhibited adsorption or penetration of the virus.

Flu (H1N1) = assay: microbe, parasite or virus in culture; format: cell-based; conditions: Influenza A virus, MDCK cells
[1] = Parallel cytotoxicity assay in 293TT cells; format: cell-based; conditions: human, parallel to JCV assay
Experimental: (§1) Every antiviral assay included a parallel cytotoxicity assay with the same cells used for each virus, the same cell number, the same drug concentrations, and the same incubation times to provide the same drug exposure. To ensure that the cytotoxicity of all compounds could be compared directly, a standard neutral red uptake cytotoxicity assay for all compounds in confluent HFF cells with a 7 d incubation period was performed.

[2] = Cytotoxicity in lymphocyte assays, BCBL-1 cells; format: cell-based; conditions: human, parallel to HHV-8 assay
Experimental: as §1
Cytotoxicity in Lymphocyte Assays:
Cell viability in all assays with lymphocytes was assessed with a luminescent Cell Viability Assay. Briefly, assay plates were incubated at ambient temperature for 30 min then luminescent reagent was added to each well and the plates were mixed to lyse the cells. Plates were then incubated for at ambient temperature and the luminescence was quantified on a luminometer. Standard methods were used to calculate drug concentrations that inhibited the proliferation of cells by 50% (CC50).
Cell viability in all assays with lymphocytes was assessed with the CellTiter-Glo Luminescent Cell Viability Assay (Promega). […] Plates were then incubated for an additional 10 min at ambient temperature and the luminescence was quantified on a luminometer. […]

Work on Cc1nc(N)c2c(C(N)=O)cn([C@@H]3O[C@H](CO)[C@@H](O)[C@H]3O)c2n1 [Compound 1, 4-amino-7-((2R,3R,4S,5R)-3,4-dihydroxy-5-(hydroxymethyl)tetrahydrofuran-2-yl)-2-methyl-7H-pyrrolo[2,3-d]pyrimidine-5-carboxamide] yielded an EC50 (HSV-2) of over 60 µM, an EC50 (HHV-8) of over 12 µM and an EC50 (JCV) of 460 nM. The EC50 (Flu (H1N1)) was over 100 µM, the CC50 [1] was over 60 µM and the CC50 [2] was 46.8 µM.
